Broadly, the melting point is the temperature, or range, at which the solid turns liquid. A word on the IC50: it is the concentration needed to halve the response being measured. Read a low IC50 as inhibition by little substance.

Each structure is given as a SMILES string. Where a name gives a salt, the structure may show the parent alone.

Tested on in the first data set: not given
Assay: not given
Settings: not given
For `CC1(NCC(=O)N2C[C@@H](F)C[C@H]2C#N)CCN(c2cnccn2)CC1` [Example 10-8, (2S,4S)-4-Fluoro-1-({[4-methyl-1-(2-pyrazinyl)-4-piperidinyl]amino}acetyl)-2-pyrrolidinecarbonitrile], the melting point lay within 166 to 167 °C.

The next data set deals with T1, human plasma DPP-IV (Homo sapiens, UniProt P27487).
T1 construct: from tissue; host or cells: human plasma
T1 sequence (P27487 39-766 limits assumed): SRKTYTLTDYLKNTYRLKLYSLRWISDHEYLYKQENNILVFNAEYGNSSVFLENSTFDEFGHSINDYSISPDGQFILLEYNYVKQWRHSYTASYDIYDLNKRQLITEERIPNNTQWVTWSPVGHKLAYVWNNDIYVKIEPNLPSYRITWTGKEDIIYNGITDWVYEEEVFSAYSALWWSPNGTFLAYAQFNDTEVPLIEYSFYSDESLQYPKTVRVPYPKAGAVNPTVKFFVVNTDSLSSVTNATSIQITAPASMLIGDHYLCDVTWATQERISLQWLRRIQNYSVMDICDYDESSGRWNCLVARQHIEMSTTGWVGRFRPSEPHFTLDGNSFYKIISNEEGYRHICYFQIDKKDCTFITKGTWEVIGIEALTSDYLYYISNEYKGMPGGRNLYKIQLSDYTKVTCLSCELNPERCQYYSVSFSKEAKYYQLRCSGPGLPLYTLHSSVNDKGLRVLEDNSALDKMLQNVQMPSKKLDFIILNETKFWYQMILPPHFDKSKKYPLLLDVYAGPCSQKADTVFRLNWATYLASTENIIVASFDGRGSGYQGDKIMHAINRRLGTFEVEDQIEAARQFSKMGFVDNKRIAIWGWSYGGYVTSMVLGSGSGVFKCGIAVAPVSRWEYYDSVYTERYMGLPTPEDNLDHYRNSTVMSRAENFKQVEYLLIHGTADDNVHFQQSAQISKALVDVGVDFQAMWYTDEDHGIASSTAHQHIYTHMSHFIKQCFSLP
The experiment in a line: Inhibition Test of Human Plasma DPP-IV. Type of data set: biochemical. The conditions noted are these: substrate H-glycine-proline-AMC, 20 minutes incubation at room temperature, fluorescence. Here is the method: Inhibition Test of Human Plasma DPP-IV
Briefly, 20 μL of human plasma were mixed with 20 μL of 80 mM MgCl2 in assay buffer (25 mM HEPES, 140 mM NaCl, 1% RIA-grade BSA, pH7.8), and were incubated in a room temperature for 60 minutes. Then the reaction was initiated by the addition of both 20 μL of test compounds and 20 μL of 0.2 mM substrate (H-glycine-proline-AMC; AMC is 7-amino-4-methylcoumarine), they were dissolved in the assay buffer.
After 20 minutes incubation in a room temperature (kept in the dark), fluorescence was measured (Excitation 380 nm, Emission 460 nm). A fluorescence-concentration curve of free AMC was obtained using AMC solution in the assay buffer with appropriate concentration. Plasma DPP-IV activities, with or without the test compounds, were expressed as the amount of product per minute per mL. The potency of the test compounds as DPP-IV inhibitor was expressed as IC50.
Regarding `CC1(NCC(=O)N2C[C@@H](F)C[C@H]2C#N)CCOCC1` [Example 7-12, (2S,4S)-4-Fluoro-1-{[(4-methyltetrahydro-2H-pyran-4-yl)amino]acetyl}-2-pyrrolidinecarbonitrile], the half-maximal inhibitory concentration (IC50) is 15 nM. With `CC1(NCC(=O)N2C[C@@H](F)C[C@H]2C#N)CCN(c2cnccn2)CC1` [Example 10-8, (2S,4S)-4-Fluoro-1-({[4-methyl-1-(2-pyrazinyl)-4-piperidinyl]amino}acetyl)-2-pyrrolidinecarbonitrile], it took 13 nM to reach half-maximal inhibition (IC50). `N#C[C@@H]1C[C@H](F)CN1C(=O)[C@H]1N[C@@H]2C[C@H]1C[C@H]2O` [Example 45-3, (2S,4S)-4-Fluoro-1-{[(1R,3S,4S,6R)-6-hydroxy-2-azabicyclo[2.2.1]hept-3-yl]carbonyl}-2-pyrrolidinecarbonitrile hydrochloride] displayed an IC50 of 4.7 nM. The compound `N#C[C@@H]1CCCN1C(=O)[C@H]1N[C@H]2CC[C@@H]1[C@H](O)C2` [Example 2-8, (2S)-1-{[(1S,3S,4S,5R)-5-hydroxy-2-azabicyclo[2.2.2]oct-3-yl]carbonyl}-2-pyrrolidinecarbonitrile hydrochloride] had an IC50 of 8.5 nM.

For the compound `N#C[C@@H]1CCCN1C(=O)[C@H]1N[C@@H]2C[C@H]1C[C@H]2OCCO` [Example 25-3, (2S)-1-{[(1R,3S,4S,6R)-6-(2-hydroxyethoxy)-2-azabicyclo[2.2.1]hept-3-yl]carbonyl}-2-pyrrolidinecarbonitrile hydrochloride], the 50% inhibitory concentration (IC50) worked out at 4.5 nM.

As for `N#C[C@@H]1CCCN1C(=O)[C@H]1N[C@@H]2C[C@H]1C[C@H]2O` [Example 5-8, (2S)-1-{[(1R,3S,4S,6R)-6-hydroxy-2-azabicyclo[2.2.1]hept-3-yl]carbonyl}-2-pyrrolidinecarbonitrile hydrochloride], the concentration for half-maximal inhibition (IC50) was found to be 8.7 nM.

The values are drawn from patent US7186731B2, “2-cyanopyrrolidinecarboxamide compound” (Astellas Pharma Inc., priority 2003, dated 2007).
